How the values were obtained:
Assay in all cases: relative viability (nuclei count vs DMSO), 5 days (fraction); higher = more cells survive
[1] = compound: C1CC(C2=C(C1)C3=C(N2)C=CC(=C3)Cl)C(=O)N [Selisistat] + Cc1nc(NC(=O)N2CCC[C@H]2C(N)=O)sc1-c1ccnc(C(C)(C)C(F)(F)F)c1 [Alpelisib] (partner 2 µM)
Procedure, shortened: (§1)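 Five library-drug doses in √10 steps were combined with a fixed anchor-drug dose, or a single drug was given alone, by pin tool to lung cancer cell lines in 1536-well plates the day after seeding. Nuclei were stained and counted after 5 days. Relative viability is the nuclei count in treated wells over that in vehicle wells, taken as the median of duplicate plates.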

[2] = compound: c1ccc2c(CCNc3ccc(Nc4ccncc4)cc3)c[nH]c2c1 [Serdemetan] + CS(=O)(=O)N1CCN(Cc2cc3nc(-c4cccc5[nH]ncc45)nc(N4CCOCC4)c3s2)CC1 [Pictilisib] (partner 1 µM)
Procedure, shortened: as §1

[3] = compound: C1CC(C2=C(C1)C3=C(N2)C=CC(=C3)Cl)C(=O)N [Selisistat] + CC(=O)c1c(C)c2cnc(Nc3ccc(N4CCNCC4)cn3)nc2n(C2CCCC2)c1=O [Palbociclib] (partner 0.5 µM)
Procedure, shortened: as §1

[4] = compound: c1ccc2c(CCNc3ccc(Nc4ccncc4)cc3)c[nH]c2c1 [Serdemetan] + Nc1nc2[nH]cc(CCc3ccc(C(=O)N[C@@H](CCC(=O)O)C(=O)O)cc3)c2c(=O)[nH]1 [Pemetrexed] (partner 0.2 µM)
Procedure, shortened: as §1

Row | Cell Line | relative viability ([1]; first compound 0.4 µM) | relative viability ([1]; first compound 1.265 µM) | relative viability ([1]; first compound 4 µM) | relative viability ([1]; first compound 12.65 µM) | relative viability ([1]; first compound 40 µM) | relative viability ([2]; first compound 0.04 µM) | relative viability ([2]; first compound 0.1265 µM) | relative viability ([2]; first compound 0.4 µM) | relative viability ([2]; first compound 1.265 µM) | relative viability ([2]; first compound 4 µM) | relative viability ([3]; first compound 0.4 µM) | relative viability ([3]; first compound 1.265 µM) | relative viability ([3]; first compound 4 µM) | relative viability ([3]; first compound 12.65 µM) | relative viability ([3]; first compound 40 µM) | relative viability ([4]; first compound 0.04 µM) | relative viability ([4]; first compound 0.1265 µM) | relative viability ([4]; first compound 0.4 µM) | relative viability ([4]; first compound 1.265 µM) | relative viability ([4]; first compound 4 µM)
1 | NCI-H2126 | 0.812 | 0.77 | 0.758 | 0.863 | 0.81 | 0.552 | 0.473 | 0.428 | 0.521 | 0.542 | 0.377 | 0.369 | 0.336 | 0.362 | 0.37 | 0.671 | 0.707 | 0.579 | 0.601 | 0.78
2 | NCI-H3122 | 0.743 | 0.694 | 0.407 | 0.873 | 0.748 | 0.627 | 0.669 | 0.6 | – | 0.55 | 0.223 | 0.191 | – | 0.191 | 0.178 | 0.182 | 0.201 | 0.197 | 0.178 | 0.2
3 | NCI-H1975 | 0.656 | 0.553 | 0.588 | 0.604 | 0.579 | 0.302 | 0.355 | 0.317 | 0.338 | 0.31 | 0.585 | 0.585 | 0.38 | 0.478 | 0.523 | 0.279 | 0.3 | 0.312 | 0.309 | 0.295
4 | NCI-H1944 | 0.92 | 0.779 | – | 0.729 | 0.823 | 0.354 | 0.383 | 0.34 | – | 0.338 | 0.351 | 0.285 | 0.276 | 0.326 | 0.351 | 0.581 | 0.599 | 0.741 | 0.469 | 0.476
5 | LU99A | 0.538 | 0.553 | 0.565 | 0.505 | 0.514 | 0.336 | 0.33 | 0.338 | 0.2 | 0.218 | 0.459 | 0.367 | 0.44 | 0.445 | 0.399 | 0.177 | 0.182 | 0.345 | 0.15 | 0.16
6 | SW 1573 | 0.703 | 0.884 | 0.716 | 0.804 | 0.864 | 0.533 | 0.545 | 0.494 | 0.182 | 0.177 | 0.353 | 0.366 | – | 0.371 | 0.388 | 0.869 | 0.851 | 0.887 | 0.689 | 0.376
7 | NCI-H2347 | 1.17 | 1.15 | 0.824 | 1 | 1.12 | 0.718 | 0.517 | 0.71 | 0.69 | 0.464 | 0.38 | 0.438 | – | 0.409 | 0.447 | 0.498 | 0.429 | 0.42 | – | 0.445
8 | NCI-H2009 | 1.22 | 1.1 | 1.25 | 0.835 | 1.12 | 0.793 | 0.822 | 0.887 | 0.424 | 0.662 | 0.202 | 0.184 | 0.136 | 0.202 | 0.191 | 1.03 | 0.89 | 1.1 | 0.895 | 0.892
9 | NCI-H1299 | 1.02 | 1.05 | 1.14 | 1.03 | 1.03 | 0.858 | 0.864 | 0.679 | 0.61 | 0.384 | – | – | – | – | – | – | – | – | – | –
10 | NCI-H727 | 0.553 | 0.714 | – | – | 0.458 | 0.327 | 0.421 | 0.412 | 0.346 | 0.299 | 0.738 | 0.613 | 0.442 | 0.601 | 0.637 | – | – | – | – | –
11 | ABC-1 | 0.977 | 0.972 | 0.872 | 1.15 | 0.921 | 0.674 | 0.673 | 0.616 | 0.367 | 0.294 | 0.713 | 0.695 | – | 0.563 | 0.735 | – | – | – | – | –
12 | NCI-H1650 | – | – | – | – | – | 0.57 | 0.585 | 0.475 | 0.41 | 0.441 | 0.362 | 0.301 | 0.357 | 0.364 | 0.334 | 0.374 | 0.328 | 0.371 | 0.343 | 0.264
13 | ChaGo-K-1 | – | – | – | – | – | – | 0.832 | 0.649 | 0.421 | 0.659 | 0.91 | 0.918 | 0.832 | 0.816 | 0.889 | 0.277 | 0.261 | 0.372 | 0.257 | 0.254
14 | NCI-H1648 | – | – | – | – | – | – | – | – | – | – | 0.281 | 0.268 | – | 0.296 | 0.299 | – | 0.714 | 0.624 | 0.554 | 0.476
15 | NCI-H596 | 0.587 | 0.482 | 0.42 | 0.502 | 0.482 | 0.41 | 0.411 | 0.346 | 0.332 | 0.339 | – | – | – | – | – | 0.45 | 0.486 | 0.515 | 0.463 | 0.492
16 | NCI-H1563 | 0.834 | 0.889 | 0.853 | 0.778 | 0.773 | 0.613 | 0.665 | 0.664 | 0.549 | 0.628 | – | – | – | – | – | 0.827 | 0.641 | 0.627 | 0.393 | 0.602
17 | A549 | 0.976 | 0.841 | 0.652 | 0.843 | 0.901 | 0.537 | 0.558 | 0.517 | 0.264 | 0.262 | – | – | – | – | – | – | – | – | – | –
18 | NCI-H522 | – | – | – | – | – | – | – | – | – | – | 1 | 0.969 | 0.714 | 0.921 | 1.02 | 0.971 | 0.857 | 1.04 | 0.933 | 0.98
19 | SW 900 | – | – | – | – | – | – | – | – | – | – | 0.549 | 0.517 | 0.502 | 0.553 | 0.511 | 0.461 | 0.51 | 0.485 | 0.324 | 0.41
20 | IA-LM | 0.882 | 0.79 | 0.545 | 0.74 | 0.696 | 0.4 | 0.499 | 0.325 | 0.314 | 0.389 | – | – | – | – | – | – | – | – | – | –
21 | EBC-1 | 0.982 | 0.891 | 0.806 | 0.807 | 0.911 | 0.35 | 0.449 | 0.451 | 0.411 | 0.368 | – | – | – | – | – | – | – | – | – | –

— the supplement of paper PMC10307832
